Measurements as given in US20040110253A1, “Method for identifying MHC-presented peptide epitopes for T cells” (priority 2002, published 2004).
Blank lines part the entries; values can stand above or below the substance they belong to.

What was measured:
[1] = tested on: YAe-62 hybridoma; test: IL-2 production by YAe-62 T cell hybridoma in response to IA^b-peptide presenting APCs; type: cell-based, mouse
Description: The mouse T cell hybridoma, referred to as YAe-62, was chosen as a representative of broadly reactive T cells present in mice carrying transgenes and gene knockouts that lead to expression of MHC Class II that are almost completely occupied by a single peptide (Ignatowicz et al., 1996, Cell 84:521-529). The T cell was produced by immunization with p3K bound to IA^b in mice that express IA^b covalently linked to Eα, a dominant IA^b binding peptide derived from the MHC Class II IEα chain. YAe-62 responds to IA^b-p3K, but not to APCs lacking MHC Class II or to the IA^b-pEα APCs from the mouse from which it was derived. YAe-62 is also reactive against many cell types bearing IA^b in the absence of p3K. It also responds to APCs from a variety of mice carrying other alleles of IA. The inventors have postulated that this T cell responds mainly to the evolutionarily conserved regions of the IA molecule with less dependence on the peptide than seen with conventional T cells (Marrack et al., 2001, J. Immunol. 167:617-621). […] From the X-ray crystal structure of IA^b (Liu et al., 2002, supra) enough was known about how peptides bind to this MHC molecule to design a strategy in which the major MHC anchor amino acids of the peptide could be held constant and only five surface exposed amino acids need be varied in the library (FIG. 8).
(§1) At the time of the final enrichment, single infected cells binding each of αβTCRs were sorted into individual wells of 96 well culture plates containing fresh SF9 cells in order to prepare clonal viral stocks. These stocks were used to infect fresh SF9 cells which were reanalyzed for binding to the appropriate αβTCR as described above. […] The majority of PCR fragments yielded a single unambiguous peptide sequence. These viruses were used to infect SF9 cells that expressed mouse ICAM and B7.1. The infected cells were used as APCs for either the B3K-06 or YAe-62 hybridoma with IL-2 production being a measure of IA^b-peptide recognition. Viruses expressing IA^b-peptide combinations that neither bound to the αβTCR nor stimulated the T cell hybridomas were used as negative controls and virus producing IA^b-p3K was used as the positive control. Results with a few representative virus clones are shown in FIG. 10A and 10B, and a summary of all of the results are shown in Table 1.

[2] = tested on: B3K-06 TCR; test: Binding of fluorescent soluble B3K-06 αβTCR to SF9 cells displaying IA^b-peptide (flow cytometry); parameters: species or system mouse
Protocol: (§2) Next fluorescent, soluble αβTCR reagents were prepared for use in flow cytometry to detect insect cells displaying the appropriate MHCII/peptide combination. Fluorescent multivalent versions of the soluble αβTCR's of B3K-06 and YAe-62 bound to insect cells displaying the IA^b-p3K, but not a control MHCII-peptide combination (data not shown).
(§3) Insect cells displaying IA^b-p3K bound the αβTCR reagents very heterogeneously, probably due to heterogeneous expression of IA^b-p3K due to variations in the multiplicity of infection and the lack of synchrony in viral infection and expression. […] In this case, there was a direct correlation between the amount of surface IA^b-p3K expressed by an individual insect cell and the amount of αβTCR bound with cells bearing a particular level of IA^b-p3K binding the αβTCRs uniformly (data not shown). Therefore, comparing the two types of staining gave a useful tool to evaluate the relation between peptide sequence and the strength of αβTCR binding (see below).
(§4) A large number of SF9 insect cells were infected at an MOI of about one with baculovirus carrying the IA^b peptide library. After 3-4 days the cells were analyzed with fluorescent B3K-06 or YAe-62 soluble αβTCR, as described above. Fluorescent cells were sorted and cultured with fresh uninfected SF9 cells to create new infected cells for analysis and an enriched viral stock. This process was repeated 3 to 4 times. In each case, when no clear fluorescent population was apparent, the brightest 1% of the infected cells was sorted. In later rounds, the majority of the cells in a clearly distinguishable fluorescent population were sorted. Infected cells binding the B3K-06 αβTCR were apparent only after two rounds of enrichment but eventually yielded a population with uniform binding (data not shown). Infected cells that bound the YAe-62 αβTCR were detectable even with the initial library of viruses and enriched rapidly to yield a population with more heterogeneous levels of binding to the receptor (data not shown).
as §1

[3] = target: T1, IA^b (Mus musculus, UniProt P14434+P14483); conditions: Rees et al., 1999; cited from earlier work
T1 sequence (P14434 24-256): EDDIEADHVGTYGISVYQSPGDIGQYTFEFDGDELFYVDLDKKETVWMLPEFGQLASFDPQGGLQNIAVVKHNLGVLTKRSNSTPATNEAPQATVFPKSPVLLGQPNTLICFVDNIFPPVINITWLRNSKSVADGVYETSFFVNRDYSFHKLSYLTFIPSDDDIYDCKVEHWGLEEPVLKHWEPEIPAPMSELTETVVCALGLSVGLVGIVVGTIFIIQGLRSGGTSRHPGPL
T1 sequence (P14483 28-265): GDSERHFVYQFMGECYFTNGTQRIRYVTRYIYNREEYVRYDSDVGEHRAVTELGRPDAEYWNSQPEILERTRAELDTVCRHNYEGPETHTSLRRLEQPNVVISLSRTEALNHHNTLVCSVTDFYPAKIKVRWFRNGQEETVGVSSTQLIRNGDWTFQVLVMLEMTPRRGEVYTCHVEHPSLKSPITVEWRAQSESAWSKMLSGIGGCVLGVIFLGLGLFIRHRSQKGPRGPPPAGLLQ

[4] = tested on: B3K-06 hybridoma; test: IL-2 production by B3K-06 T cell hybridoma in response to IA^b-peptide presenting APCs; type: cell-based, mouse
Description: The hybridoma, B3K-06 was produced from wild-type C57BL/6 mice immunized conventionally with the peptide (Rees et al., 1999, supra). […] Also, as is commonly seen with conventional T cells, the interaction of the αβ TcR of B3K-06 with IA^b-p3K is very sensitive to changes in any of the peptide amino acids exposed on the surface of the IA^b-p3K complex. Mutation of positions Q2, K3, K5, N7 or K8 to alanine virtually eliminates recognition of p3K by B3K-06 (Liu et al., 2002, supra and additional data not shown).
as §1

[5] = tested on: YAe-62 TCR; test: Binding of fluorescent soluble YAe-62 αβTCR to SF9 cells displaying IA^b-peptide (flow cytometry); parameters: species or system mouse
Protocol: as §2, §3, §4, §1

[6] = tested on: T cell 3DT-52.5; test: IL-2 production by T cell 3DT-52.5 in response to infected SF9 cells expressing D^d tethered to peptide; type: cell-based, mouse; conditions: infected insect cells expressing D^d bearing the peptide as APCs
Description: FIG. 14A is a graph showing IL-2 produced by T cell 3DT-52.5 in response to ICAM+/B7+ SF9 cells infected with baculovirus expressing D^d tethered to either pHIV or the αβTCR identified peptide, TGPTRWCRL (SEQ ID NO:50).
To screen the library, soluble a αβTCR were produced from a mouse T cell specific for D^d plus an unknown self-peptide (Endres et al., 1983, J Immunol 131:1656-1662). A multimeric, fluorescent version of the αβTCR was produced as described for MHCII specific αβTCRs. SF9 cells, infected with the library at a multiplicity of infection (MOI) of <1, were analyzed for binding of the fluorescent αβTCR (data not shown). Although no clearly fluorescent population of cells was seen, of those with good surface D^d expression, the 1% of the cells with the brightest fluorescence were sorted and cultured with fresh insect cells to expand the virus. This type of enrichment was repeated six times, producing a clear population of infected cells was detected that bound the αβTCR (data not shown). The infected cells were cloned with fresh insect cells to prepare clonal viral stocks. These stocks were re-tested for encoding a D^d-peptide combination that bound the αβTCR.
DNA from a number of these clones was sequenced through the region encoding the peptide to determine the peptide sequence. […]

[7] = tested on: T cell 3DT-52.5; test: IL-2 production by T cell 3DT-52.5 in response to LKD8 cells plus synthetic peptide; type: cell-based, mouse; conditions: synthetic peptide 100 ug/ml, D^d expressing Tap deficient cell line, twenty four hours
Description: FIG. 14B is a graph showing IL-2 produced by T cell […] in response to (1) P815 plus a bound unknown self-peptide and 2) LKD8, alone, or in the presence of the library derived peptide, TGPTRWCRL (SEQ ID NO:50), or a peptide derived from the spin protein, AGATRWCRL (SEQ ID NO:51).
DNA from a number of these clones was sequenced through the region encoding the peptide to determine the peptide sequence. Only one sequence was found, a 9mer, TGPTRWCRL (represented by SEQ ID NO:50; the underlined amino acids are in the positions varied in the library). […] A search of the mouse genome for proteins that contained peptides similar to the library peptide yielded a very similar sequence (AGATRWCRL; SEQ ID NO:51) intheprotein, spin(GenBank Accession No. BC011467). The library peptide and the spin peptide were synthesized and tested with a D^d expressing, Tap deficient, cell line for recognition by the original T cell (FIG. 14B). […] In the case of LKD8 the cell line was tested alone or in the presence of 100 ug/ml of the library derived peptide, TGPTRWCRL (SEQ ID NO:50), or a peptide derived from the spin protein, AGATRWCRL (SEQ ID NO:51). After twenty four hours the culture supernatants were assayed for IL-2. Without an added peptide, the D^d on this cell line was not recognized because the Tap deficiency prevents loading of endogenous peptides.

[8] = target: IA^b-pEα displayed on baculovirus-infected SF9 insect cells (mouse; baculovirus); test: flow cytometry, fluorescent multivalent soluble TCR on infected SF9 cells
[9] = target: IA^b-… displayed on baculovirus-infected SF9 insect cells (mouse; baculovirus); test: as above
[10] = target: IA^b-p3K displayed on baculovirus-infected SF9 insect cells (mouse; baculovirus); test: as above
[11] = target: IA^b-… (SEQ ID NO:26) displayed on baculovirus-infected SF9 insect cells (mouse; baculovirus); test: as above
[12] = target: IA^b-… (SEQ ID NO:25) displayed on baculovirus-infected SF9 insect cells (mouse; baculovirus); test: as above
[13] = IA^b-peptide displayed on baculovirus-infected SF9 cells, fluorescent soluble αβTCR
[14] = insect cells displaying IA^b-peptide

Substance: F E A Q K A K A N K A V (FEAQKAKANKAV; synthetic peptide motif) [p3K, positive control]
- response of YAe-62 to IA^b-peptide APCs ([1]; APCs bearing IA^b-peptide): responds
- IL-2 Production (units/ml) ([1]; YAe-62 hybridoma, infected SF9 cells expressing mouse ICAM and B7.1 as APCs): 205 units/ml
- B3K-06 TCR Binding (% of p3K) [2, 13]: 100.0 % of p3K
- binding of B3K-06 αβTCR to IA^b-peptide complex (in words) [2, 14]: bound
- binding of peptide to IA^b [3]: binds well
- IL-2 Production (units/ml) ([4]; B3K-06 hybridoma, infected SF9 cells expressing mouse ICAM and B7.1 as APCs): 3500 units/ml
- response of B3K-06 to IA^b-expressing APCs plus peptide ([4]; IA^b-expressing APCs, data not shown): responds to IA^b-expressing APCs in the presence, but not in the absence of the peptide
- YAe-62 TCR Binding (% of p3K) [5, 13]: 100.0 % of p3K
- binding of YAe-62 αβTCR to IA^b-peptide complex (in words) [5, 14]: bound

Substance: TGPTRWCRL (synthetic peptide motif) [9mer D^d library derived peptide identified with the αβTCR of 3DT-52.5]
- stimulation of IL-2 production from the original T cell donor of the αβTCR [6]: specifically stimulated IL-2 production
- restoration of the ability of LKD8 cells to stimulate the T cells (IL-2) [7]: restored the ability of the cells to stimulate the T cells

- TCR Binding (% of p3K) [8]: 0.4 % of p3K
- TCR Binding (% of p3K) [9]: 66.8 % of p3K
- TCR Binding (% of p3K) [10]: 100 % of p3K
Substance: soluble αβTCR of B3K-06, fluorescent multivalent version

- TCR Binding (% of p3K) [11]: 54.9 % of p3K
- TCR Binding (% of p3K) [8]: 0.3 % of p3K
- TCR Binding (% of p3K) [10]: 100 % of p3K
- TCR Binding (% of p3K) [12]: 58.3 % of p3K
Substance: soluble αβTCR of YAe-62, fluorescent multivalent version
